These results are taken from patent publication US11964953B2, “Substituted aminothiazoles as DGKzeta inhibitors for immune activation” (Bayer Aktiengesellschaft, priority 2020, dated 2024).

As usually defined, the IC50 is the point on the concentration scale where inhibition reaches its midpoint.

human DGKζ, sequence (Q13574 other isoform, or with tags, fused parts or gaps): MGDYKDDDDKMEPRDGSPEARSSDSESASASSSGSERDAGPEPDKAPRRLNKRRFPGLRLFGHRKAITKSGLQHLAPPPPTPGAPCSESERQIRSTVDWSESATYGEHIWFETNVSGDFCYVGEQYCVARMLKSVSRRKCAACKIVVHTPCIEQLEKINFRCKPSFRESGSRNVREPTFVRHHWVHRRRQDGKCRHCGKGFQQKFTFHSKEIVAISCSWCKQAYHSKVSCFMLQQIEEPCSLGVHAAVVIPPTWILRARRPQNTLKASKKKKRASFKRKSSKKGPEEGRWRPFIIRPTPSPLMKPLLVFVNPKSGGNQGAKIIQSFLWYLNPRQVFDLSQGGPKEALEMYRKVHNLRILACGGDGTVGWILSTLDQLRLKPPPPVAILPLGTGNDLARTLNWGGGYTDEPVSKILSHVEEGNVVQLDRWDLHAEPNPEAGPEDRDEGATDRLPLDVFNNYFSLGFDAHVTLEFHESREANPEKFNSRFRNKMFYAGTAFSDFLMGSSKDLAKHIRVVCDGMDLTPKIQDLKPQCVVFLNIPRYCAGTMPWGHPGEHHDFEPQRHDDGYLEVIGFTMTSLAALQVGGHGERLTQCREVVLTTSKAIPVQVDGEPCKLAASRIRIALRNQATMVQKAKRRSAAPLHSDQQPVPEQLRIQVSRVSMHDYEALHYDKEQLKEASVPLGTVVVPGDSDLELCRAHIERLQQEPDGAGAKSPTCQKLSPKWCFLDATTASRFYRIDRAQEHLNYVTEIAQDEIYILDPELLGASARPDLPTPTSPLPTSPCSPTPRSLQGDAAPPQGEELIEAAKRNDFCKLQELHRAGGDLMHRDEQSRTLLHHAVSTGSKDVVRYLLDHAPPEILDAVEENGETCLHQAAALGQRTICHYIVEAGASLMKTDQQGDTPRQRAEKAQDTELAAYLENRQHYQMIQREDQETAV

For the first assay, the target named is human DGKζ (Homo sapiens (Human), UniProt Q13574). The experiment in a line: Human DGKζ kinase activity inhibition assay (ADP-Glo). The format is biochemical. Conditions: IC50, in vitro human DGKζ kinase activity inhibition assay. The method in brief:
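ADP-Glo luminescence, reflecting ADP produced, served as the readout of activity. Full-length human DGKζ, FLAG-tagged at the C-terminus and insect-cell expressed, was used; lipid substrate mix was sonicated with octyl-β-D-glucopyranoside in 50 mM MOPS pH 7.4.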
In turn, `Cc1cccc(N(C)C(=O)COc2ccc(C(=O)c3sc(N(c4ccc(F)cc4)C(C)C(N)=O)nc3N)cc2)c1` (racemic) [Example 140, rac-2-(N-[4-amino-5-[4-[2-(N,3-dimethylanilino)-2-oxo-ethoxy]benzoyl]thiazol-2-yl]-4-fluoro-anilino)propanamide] had an IC50 of 37.5 nM.

Staying with this assay, now noted: in vitro human DGKζ kinase activity inhibition assay; read-out: IC50.
With `CC(C(N)=O)N(c1ccc(F)cc1)c1nc(N)c(C(=O)c2ccc(OCC(=O)Nc3ncnc4[nH]ncc34)cc2)s1` (racemic) [Example 131, rac-2-(N-[4-amino-5-[4-[2-oxo-2-(1H-pyrazolo[3,4-d]pyrimidin-4-ylamino)ethoxy]benzoyl]thiazol-2-yl]-4-fluoro-anilino)propanamide], the IC50 was 180 nM.

Turning to `CC(C(N)=O)N(c1ccc(F)cc1)c1nc(N)c(C(=O)c2ccc(OCC(=O)NC3CCCC3)cc2)s1` (racemic) [Example 132, rac-2-(N-[4-amino-5-[4-[2-(cyclopentylamino)-2-oxo-ethoxy]benzoyl]thiazol-2-yl]-4-fluoro-anilino)propanamide], the IC50 was determined as 93.3 nM.

For `CC(C(N)=O)N(c1ccc(F)cc1)c1nc(N)c(C(=O)c2ccc(OCC(=O)N3CCc4ccccc4C3)cc2)s1` (racemic) [Example 133, rac-2-(N-[4-amino-5-[4-[2-(3,4-dihydro-1H-isoquinolin-2-yl)-2-oxo-ethoxy]benzoyl]thiazol-2-yl]-4-fluoro-anilino)propanamide], the 50% inhibitory concentration (IC50) worked out at 42.5 nM.

As for `CC(C(N)=O)N(c1ccc(F)cc1)c1nc(N)c(C(=O)c2ccc(OCC(=O)N3Cc4ccccc4C3)cc2)s1` (racemic) [Example 134, rac-2-(N-[4-amino-5-[4-(2-isoindolin-2-yl-2-oxo-ethoxy)benzoyl]thiazol-2-yl]-4-fluoro-anilino)propanamide], the half-inhibitory concentration (IC50) was found to be 76.8 nM.

On to `CC(C(N)=O)N(c1ccc(F)cc1)c1nc(N)c(C(=O)c2ccc(OCC(=O)N(C)Cc3ccco3)cc2)s1` (racemic) [Example 135, rac-2-(N-[4-amino-5-[4-[2-[2-furylmethyl(methyl)amino]-2-oxo-ethoxy]benzoyl]thiazol-2-yl]-4-fluoro-anilino)propanamide], for which the concentration for half-maximal inhibition (IC50) amounted to 49.5 nM.

As to `CC(C(N)=O)N(c1ccc(F)cc1)c1nc(N)c(C(=O)c2ccc(OCC(=O)N3CCC(N(C)C)CC3)cc2)s1` (racemic) [Example 136, rac-2-(N-[4-amino-5-[4-[2-[4-(dimethylamino)-1-piperidyl]-2-oxo-ethoxy]benzoyl]thiazol-2-yl]-4-fluoro-anilino)propanamide], the 50% inhibitory concentration (IC50) worked out at 740 nM.

As to `CC(C(N)=O)N(c1ccc(F)cc1)c1nc(N)c(C(=O)c2ccc(OCC(=O)N(C)Cc3cccnc3)cc2)s1` (racemic) [Example 137, rac-2-(N-[4-amino-5-[4-[2-[methyl(3-pyridylmethyl)amino]-2-oxo-ethoxy]benzoyl]thiazol-2-yl]-4-fluoro-anilino)propanamide], the 50% inhibitory concentration (IC50) is 238 nM.

Consider `Cc1ccccc1N(C)C(=O)COc1ccc(C(=O)c2sc(N(c3ccc(F)cc3)C(C)C(N)=O)nc2N)cc1` (racemic) [Example 138, rac-2-(N-[4-amino-5-[4-[2-(N,2-dimethylanilino)-2-oxo-ethoxy]benzoyl]thiazol-2-yl]-4-fluoro-anilino)propanamide], for which the half-inhibitory concentration (IC50) was 61.6 nM.

As to `Cc1ccc(N(C)C(=O)COc2ccc(C(=O)c3sc(N(c4ccc(F)cc4)C(C)C(N)=O)nc3N)cc2)cc1` (racemic) [Example 139, rac-2-(N-[4-amino-5-[4-[2-(N,4-dimethylanilino)-2-oxo-ethoxy]benzoyl]thiazol-2-yl]-4-fluoro-anilino)propanamide], the IC50 was found to be 56.9 nM.

As to `CC(C(N)=O)N(c1ccc(F)cc1)c1nc(N)c(C(=O)c2ccc(OCC(=O)NCC(C)(C)C)cc2)s1` (racemic) [Example 141, rac-2-(N-[4-amino-5-[4-[2-(2,2-dimethylpropylamino)-2-oxo-ethoxy]benzoyl]thiazol-2-yl]-4-fluoro-anilino)propanamide], the IC50 amounted to 389 nM.
